Experimental data from patent US6956040B2, “Oxazolidinone piperazinyl derivatives as potential antimicrobials” (Ranbaxy Laboratories Limited, priority 2001, dated 2005).
Converted amounts (≈) assume the structure as drawn.

Assays:
[1] = system: S. pyogenes 19615; experiment: MIC, agar incorporation method; format: cell-based, Streptococcus pyogenes; conditions: S. pyogenes 19615; agar incorporation
Description: (§1) The compounds of the invention display antibacterial activity when tested by the agar incorporation method. The following minimum inhibitory concentrations (μg/ml) were obtained for representative compounds of the invention which are given below in the following tables.
(§2) • 1) S.aureus ATCC 25923—Staphylococus aureus ATCC 25923 • 2) MRSA 15187—Methicillin Resistant Staphylococcus aureus • 3) Ent. faecalis ATCC 29212—Enterococcus faecalis ATCC 29212 • 4) Ent. faecium 6A—Enterococcus faecium 6A Van®, Cipro® • 5) Strep. pne. ATCC 6303—Streptococcus pneumoniae ATCC 6303 • 6) Strep. pyog. ATCC 19615—Streptococcus pyogenes • 7) S. epidermidis—Staphylococcus epidermidis ATCC 12228
(§3) Briefly, the compounds were dissolved in DMSO and doubling dilution of the compounds were incorporated into Meuller Hilton agar before solidification. Inoculum was prepared by suspending 4 to 5 colonies into 5 ml of normal saline solution and adjusting the turbidity to 0.5 Macfarland turbidity standard tables (1.5×10^8 CFU/ml), after appropriate dilutions, 10^4 CFU/spot was transfered into the surface of dried plate and incubated for 18 hours (24 hours for MRSN studies). The concentration showing no growth of the inoculated culture was recorded as the MIC. Appropriate ATCC standard strains were simultaneously tested and result recorded only when the MIC's against standard antibiotics were within the acceptable range.

[2] = system: MRSA 15187; experiment: MIC, agar incorporation method; format: cell-based, Staphylococcus aureus; conditions: MRSA 15187; agar incorporation
Description: as §1, §2, §3

[3] = system: S. aureus 25923; experiment: MIC, agar incorporation method; format: cell-based, Staphylococcus aureus; conditions: S. aureus 25923; agar incorporation
Description: as §1, §2, §3

[4] = system: MRSA 562; experiment: In vivo activity against MRSA 562 (ED50); set-up: species or system Staphylococcus aureus
[5] = system: MRSA 33; experiment: MIC, agar incorporation method; format: cell-based, Staphylococcus aureus; conditions: MRSA 33; agar incorporation
Procedure: as §1, §3

[6] = system: S. pneum AB 34; experiment: MIC, agar incorporation method; format: cell-based, Streptococcus pneumoniae; conditions: S. pneum AB 34; agar incorporation
Procedure: as §1, §3

[7] = system: E. faecalis 29212; experiment: MIC, agar incorporation method; format: cell-based, Enterococcus faecalis; conditions: E. faecalis 29212; agar incorporation
Description: as §1, §2, §3

[8] = system: VRE 6A; experiment: MIC, agar incorporation method; format: cell-based, Enterococcus faecium; conditions: VRE 6A; agar incorporation
Description: as §1, §2, §3

[9] = system: S. pneum 6303; experiment: MIC, agar incorporation method; format: cell-based, Streptococcus pneumoniae; conditions: S. pneum 6303; agar incorporation
Description: as §1, §2, §3

[10] = system: MRSA 562; experiment: MIC, agar incorporation method; format: cell-based, Staphylococcus aureus; conditions: MRSA 562
Procedure: as §1, §3

MIC [1]	MIC [2]	MIC [3]	MIC [5]	MIC [6]	MIC [7]	MIC [8]	MIC [9]	MIC ([10]; Table 5)	MIC ([10]; agar incorporation, Table 1)	SMILES	ED50 (mg/kg body weight) PO [4]
2 µg/mL (≈ 3.93 µM)	2 µg/mL (≈ 3.93 µM)	2 µg/mL (≈ 3.93 µM)	2 µg/mL (≈ 3.93 µM)	1 µg/mL (≈ 1.96 µM)	2 µg/mL (≈ 3.93 µM)	1 µg/mL (≈ 1.96 µM)	1 µg/mL (≈ 1.96 µM)	–	–	CC(=O)NC[C@H]1CN(c2ccc(N3CCN(C(=O)c4ccc(Br)o4)CC3)c(F)c2)C(=O)O1 [Compound No. 04]	>25 mg/kg body weight
0.5 µg/mL (≈ 1.05 µM)	2 µg/mL (≈ 4.21 µM)	2 µg/mL (≈ 4.21 µM)	2 µg/mL (≈ 4.21 µM)	2 µg/mL (≈ 4.21 µM)	2 µg/mL (≈ 4.21 µM)	2 µg/mL (≈ 4.21 µM)	2 µg/mL (≈ 4.21 µM)	2 µg/mL (≈ 4.21 µM)	2 µg/mL (≈ 4.21 µM)	CC(=O)NC[C@H]1CN(c2ccc(N3CCN(C(=O)C(=O)c4cccs4)CC3)c(F)c2)C(=O)O1 [Compound No. 07, (S)-N[[3-[3-Fluoro-4-[N-1[4-{2-(2-thienyl)dicarbonyl}]-piperazinyl]phenyl]2-oxo-5-oxazolidinyl]methyl]acetamide]	>25 mg/kg body weight
–	–	–	–	–	–	–	–	2 µg/mL (≈ 4.35 µM)	–	CC(=O)NC[C@H]1CN(c2ccc(N3CCN(Cc4ccc(NC=O)o4)CC3)c(F)c2)C(=O)O1 [Compound No. 67]	>25 mg/kg body weight
2 µg/mL (≈ 3.97 µM)	1 µg/mL (≈ 1.99 µM)	1 µg/mL (≈ 1.99 µM)	1 µg/mL (≈ 1.99 µM)	4 µg/mL (≈ 7.94 µM)	1 µg/mL (≈ 1.99 µM)	1 µg/mL (≈ 1.99 µM)	4 µg/mL (≈ 7.94 µM)	–	1 µg/mL (≈ 1.99 µM)	CC(=O)NC[C@H]1CN(c2ccc(N3C[C@@H]4[C@H](C3)[C@H]4N(C)Cc3ccc([N+](=O)[O-])s3)c(F)c2)C(=O)O1 [Compound No. 34, (S)-N-[[3-[3-Fluoro[4-[3-(1α,5α,6α)-6-[N-(5-nitro-2-thienyl-methyl)-N-methyl]amino]-3-azabicyclo-[3.1.0]hexane]phenyl]-2-oxo-5-oxazolidinyl]methyl]acetamide]	–
8 µg/mL (≈ 18 µM)	2 µg/mL (≈ 4.5 µM)	1 µg/mL (≈ 2.25 µM)	2 µg/mL (≈ 4.5 µM)	8 µg/mL (≈ 18 µM)	8 µg/mL (≈ 18 µM)	8 µg/mL (≈ 18 µM)	4 µg/mL (≈ 9 µM)	–	1 µg/mL (≈ 2.25 µM)	CC(=O)NC[C@H]1CN(c2ccc(N3CCN(Cc4ccc(C=O)o4)CC3)c(F)c2)C(=O)O1 [Compound No. 02, (S)-N-[[3-[3-Fluoro-4-[N-1[4-{2-furyl(5-formyl)methyl}]piperazinyl]phenyl]-2-oxo-5-oxazolidinyl]methyl]acetamide]	–
2 µg/mL (≈ 4.11 µM)	4 µg/mL (≈ 8.22 µM)	4 µg/mL (≈ 8.22 µM)	4 µg/mL (≈ 8.22 µM)	4 µg/mL (≈ 8.22 µM)	4 µg/mL (≈ 8.22 µM)	4 µg/mL (≈ 8.22 µM)	4 µg/mL (≈ 8.22 µM)	4 µg/mL (≈ 8.22 µM)	–	CC(=O)NC[C@H]1CN(c2ccc(N3CC4C(C3)C4N(C)C(=O)Cc3cccs3)c(F)c2)C(=O)O1 (stereo partly drawn) [Compound No. 71, (S)-N-[[3-[3-Fluoro[4-[3-(1α, 5α, 6α)-6-[N-(2-thiopheneacetyl)-N-methyl]amino]-3-azabicyclo-[3.1.0]hexane]phenyl]-2-oxo-5-oxazolidinyl]methyl]acetamide]	>25 mg/kg body weight
